# Test results taken from patent US20250042887A1, “GLYCOGEN SYNTHASE KINASE-3 (GSK3) INHIBITOR COMPOUNDS FOR USE AS ANTIVIRAL AGENTS” (priority 2021, published 2025).
# Where two headings read alike, the source gives them in different places. Where no end group is shown, it is not given here. [ ]: non-standard residue; d: D form. pS = N[C@@H](COP(=O)(O)O)C(=O)O
# Assays:
# [1] = biological target: T1, casein kinase 2-alpha-1 (CK2a1) (Homo sapiens, UniProt P68400); assay: In vitro phosphorylation of nucleocapsid peptides, ADP-Glo, CK2a1; assay type: biochemical; settings: peptide ~250 μM, 250 μM ATP, 30 min at 30° C.; duplicate measurements
# T1 construct: GST; purchased SignalChem C70-10G
# T1 sequence (P68400 whole entry): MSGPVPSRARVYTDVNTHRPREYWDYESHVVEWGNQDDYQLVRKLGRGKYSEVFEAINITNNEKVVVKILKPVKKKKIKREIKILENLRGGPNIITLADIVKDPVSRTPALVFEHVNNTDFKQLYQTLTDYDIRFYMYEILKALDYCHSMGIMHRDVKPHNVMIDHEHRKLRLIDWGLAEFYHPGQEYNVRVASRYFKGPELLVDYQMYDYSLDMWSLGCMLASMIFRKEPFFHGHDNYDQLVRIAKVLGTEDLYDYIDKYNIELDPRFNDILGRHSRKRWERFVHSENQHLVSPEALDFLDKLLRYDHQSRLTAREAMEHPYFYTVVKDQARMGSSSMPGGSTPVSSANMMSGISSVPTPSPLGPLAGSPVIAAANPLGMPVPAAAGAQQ
# [2] = biological target: T2, glycogen synthase kinase-3-beta (Homo sapiens, UniProt P49841); assay: In vitro phosphorylation of nucleocapsid peptides, ADP-Glo, GSK3b; assay type: biochemical; settings: for Relative Phosphorylation to No Kinase Control, GSK3b: Mean ± S.Dev. (n = 3), no kinase control = 100; for Relative Phosphorylation to Autophosphorylation Control (set at 100), GSK3b: peptide ~250 μM, 250 μM ATP, 30 min at 30° C., duplicate measurements
# T2 construct: GST; purchased SignalChem Go9-10G
# T2 sequence (P49841 whole entry): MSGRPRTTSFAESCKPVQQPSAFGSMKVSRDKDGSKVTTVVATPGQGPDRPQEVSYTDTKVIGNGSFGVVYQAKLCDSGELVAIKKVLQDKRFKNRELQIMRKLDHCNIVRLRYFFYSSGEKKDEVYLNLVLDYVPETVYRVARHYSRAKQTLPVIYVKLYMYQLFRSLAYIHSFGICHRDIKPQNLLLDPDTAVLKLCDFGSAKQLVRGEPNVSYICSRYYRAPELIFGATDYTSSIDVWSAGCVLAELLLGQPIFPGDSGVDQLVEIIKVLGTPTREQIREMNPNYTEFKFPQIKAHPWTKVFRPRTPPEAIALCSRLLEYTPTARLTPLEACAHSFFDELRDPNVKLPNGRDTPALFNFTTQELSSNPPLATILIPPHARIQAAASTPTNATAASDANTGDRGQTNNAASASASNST
# [3] = biological target: cAMP-dependent protein kinase catalytic subunit-alpha (PKACa) (Homo sapiens, UniProt P17612); assay: In vitro phosphorylation of nucleocapsid peptides, ADP-Glo, PKACa; assay type: biochemical; settings: peptide ~250 μM, 250 μM ATP, 30 min at 30° C.; duplicate measurements
# [4] = biological target: T3, protein kinase C-alpha (PKC α) (Homo sapiens, UniProt P17252); assay: In vitro phosphorylation of nucleocapsid peptides, ADP-Glo, PKCa; assay type: biochemical; settings: for Relative Phosphorylation to No Kinase Control, PKCa: Mean ± S.Dev. (n = 3), no kinase control = 100; for Relative Phosphorylation to Autophosphorylation Control (set at 100), PKCa: peptide ~250 μM, 250 μM ATP, 30 min at 30° C., duplicate measurements
# T3 construct: GST; purchased SignalChem P61-18G
# PKCa + GSK3b = assay: In vitro phosphorylation of nucleocapsid peptides, ADP-Glo, PKCa + GSK3b combined; assay type: biochemical, human; settings: Mean ± S.Dev. (n = 3); no kinase control = 100
# HCoV-229E = assay: High-content screen of GSK3β-focused library in HCoV-229E infected Huh-7.5.1 cells (intracellular dsRNA); assay type: cell-based, human coronavirus 229E (HCoV-229E); settings: Human coronavirus 229E, single dose of 10 μM, Z′ 0.7
# SARS-CoV-2 = assay: High-content screen of GSK3β-focused library in SARS-CoV-2 infected Huh-7.5.1 cells (dsRNA or nucleocapsid); assay type: cell-based; settings: for inhibition at 10 µM: Severe acute respiratory syndrome coronavirus 2, single dose of 10 μM, Huh-7.5.1 cells; for Activity (SARS-CoV-2): see TABLE A
# Huh-7.5.1 cells = settings: single dose of 10 μM
# Procedure: High content screening methodology and parameters. Monitoring of the total number of cells (based on nuclei staining) and number of virus infected cells (based on dsRNA and Nucleocapsid staining) was performed using the CellInsight CX7™ High Content Screening platform (Thermo Fisher™), as previously described (33042061). Shortly, nuclei are identified and counted using the 350′461 nm wavelength (Hoechst 33342™); cell debris and other particles are deducted based on a size filter tool. A Region of Interest (ROI, or “circle”) is then drawn around each host cell and validated against the bright field image to correspond with host cell membranes. The ROI encompasses the “spots”, where dsRNA (485/521 nm wavelength) and SARS-CoV-2 nucleocapsid (533/588 nm wavelength) are localized. Finally, the software (HCS Studio Cell Analysis Software™, version 4.0) identifies, counts and measures the pixel area and intensity of the spots within each circle. The fluorescent spot area measured within each cell (circle) is then added and quantified for each well. The total circle spot intensity of each well corresponds to the viral load, and is normalized to non-infected cells, and to cells infected with no compound. Nuclei stain (Hoechst 33342™) was used to quantify cell loss (due to cytotoxicity or loss of adherence), and to normalize the changes in viral load resulting from a decrease in cell numbers.
# [5] = Z′ 0.3, read-out: SARS-CoV-2 inhibition (% dsRNA)
# [6] = average of screens 1 and 2, read-out: Average SARS-CoV-2 Nucleocapsid inhibition
# [7] = screen 1, Z′ 0.7, read-out: SARS-CoV-2 inhibition (% Nucleocapsid) 1
# [8] = screen 2, Z′ 0.5, read-out: SARS-CoV-2 inhibition (% Nucleocapsid) 2
Compound,"Relative Phosphorylation to Autophosphorylation Control (set at 100), CK2a1 [1]","Relative Phosphorylation to No Kinase Control, GSK3b [2]","Relative Phosphorylation to Autophosphorylation Control (set at 100), GSK3b [2]","Relative Phosphorylation to Autophosphorylation Control (set at 100), PKACa [3]","Relative Phosphorylation to No Kinase Control, PKCa [4]","Relative Phosphorylation to Autophosphorylation Control (set at 100), PKCa [4]","Relative Phosphorylation to No Kinase Control, PKCa + GSK3b (PKCa + GSK3b)",inhibition at 10 µM (HCoV-229E),inhibition at 10 µM (SARS-CoV-2; [5]),inhibition at 10 µM (SARS-CoV-2; [6]),inhibition at 10 µM (SARS-CoV-2; [7]),inhibition at 10 µM (SARS-CoV-2; [8]),Activity (SARS-CoV-2) (SARS-CoV-2),Average cell loss (%) (Huh-7.5.1 cells)
"SQASSRSSSRSRNS [SCV2-N [180-193], synthetic peptide modeled after SARS-CoV-2 nucleocapsid protein phosphorylation sites]",101,2407 ± 23,102,123,"16,366 ± 261",1278,3836 ± 41,,,,,,,
"RGGSQASSRSS(pS)RS (RGGSQASSRSS[pS]RS) [SCV2-N [177-190]-pS188, synthetic peptide modeled after SARS-CoV-2 nucleocapsid protein phosphorylation sites, pre-phosphorylated at S188]",,"24,585 ± 645",1209,128,3861 ± 71,389,,,,,,,,
Cc1nnc(-c2ccc3occ(-c4ccc([S+](C)[O-])c(OC(F)(F)F)c4)c3c2)o1 (stereo not shown) [Compound P-5782442],,,,,,,,60%,100%,93.8%,93.3%,94.4%,active (see TABLE A),16.1%
O=C(NCc1ccccn1)Nc1cc(N2CC(CCc3ccccc3)CC2=O)ccn1 (stereo not shown) [Compound P-4423632],,,,,,,,43.2%,100%,95.2%,98%,92.4%,active (see TABLE A),12.0%
CSc1ccc(-n2cnc3ccc(-c4nnc(CCc5cccc(C(F)(F)F)c5)o4)cc32)cc1 [Compound P-3817632],,,,,,,,87.7%,100%,71.4%,70.8%,72%,active (see TABLE A),12.7%
"SQASSRSSSR(pS)RNS (SQASSRSSSR[pS]RNS) [SCV2-N [180-193]-pS190, synthetic peptide modeled after SARS-CoV-2 nucleocapsid protein phosphorylation sites, pre-phosphorylated at S190]",100,2957 ± 3,111,312,4161 ± 66,418,,,,,,,,
"RGGSQASSRSSSRS [SCV2-N [177-190], synthetic peptide modeled after SARS-CoV-2 nucleocapsid protein phosphorylation sites]",,2161 ± 63,107,162,"13,714 ± 502",1320,3572 ± 22,,,,,,,
COc1ccc(-n2cnc3ccc(-c4nnc(SCc5cccc(C#N)c5)o4)cc32)cc1 [Compound P-0780332],,,,,,,,0%,0.6%,0%,0%,0%,inactive (see TABLE A),9.2%
